{
  "source": "paper PMC5218480",
  "about": "(PLoS ONE, 2017)",
  "tested_on": "MV-4-11 cells",
  "experiment": "Gene expression microarray analysis (Affymetrix PrimeView) and GSEA",
  "type": "cell-based, human",
  "design": "RFU PODN (11730768_x_at) / Fold change /veh PODN (11730768_x_at) / RFU LINC00158 (11744669_a_at) / Fold change /veh LINC00158 (11744669_a_at) / RFU DUSP10 (11751237_a_at) / Fold change /veh DUSP10 (11751237_a_at) / RFU ID3 (11757404_x_at) / Fold change /veh ID3 (11757404_x_at) / RFU PLEKHG5 (11737974_s_at) / Fold change /veh PLEKHG5 (11737974_s_at) / RFU LRRC4B (11730491_at) / Fold change /veh LRRC4B (11730491_at) / RFU GIMAP4 (11747438_a_at) / Fold change /veh GIMAP4 (11747438_a_at) / RFU KRT8 (11758183_x_at) / Fold change /veh KRT8 (11758183_x_at) / RFU CNN1 (11734310_a_at) / Fold change /veh CNN1 (11734310_a_at) / RFU VPS37D (11726825_at) / Fold change /veh VPS37D (11726825_at) / RFU C10orf10 (11716522_x_at) / Fold change /veh C10orf10 (11716522_x_at) / RFU KIR2DL2 /// KIR2DL4 /// KIR2DL5A /// KIR2DL5B /// KIR2DS1 /// KIR2DS2 /// KIR2DS3 /// KIR2DS4 /// KIR3DL3 /// KIR3DL3 /// KIR3DS1 (11738374_at) / Fold change /veh KIR2DL2 /// KIR2DL4 /// KIR2DL5A /// KIR2DL5B /// KIR2DS1 /// KIR2DS2 /// KIR2DS3 /// KIR2DS4 /// KIR3DL3 /// KIR3DL3 /// KIR3DS1 (11738374_at) / RFU C1QL1 (11718748_at) / Fold change /veh C1QL1 (11718748_at) / RFU TMPRSS4 (11747572_a_at) / Fold change /veh TMPRSS4 (11747572_a_at) / RFU HAMP (11756126_x_at) / Fold change /veh HAMP (11756126_x_at) / RFU RNFT2 (11725882_a_at) / Fold change /veh RNFT2 (11725882_a_at) / RFU NR4A2 (11747474_a_at) / Fold change /veh NR4A2 (11747474_a_at) / RFU ABCC12 (11746883_a_at) / Fold change /veh ABCC12 (11746883_a_at) / RFU TMEM136 (11760407_x_at) / Fold change /veh TMEM136 (11760407_x_at) / RFU CLDN22 /// WWC2 (11732394_at) / Fold change /veh CLDN22 /// WWC2 (11732394_at) / RFU HLA-DPB1 (11760878_x_at) / Fold change /veh HLA-DPB1 (11760878_x_at) / RFU SPINT1 (11716480_a_at) / Fold change /veh SPINT1 (11716480_a_at) / RFU GAP43 (11754022_s_at) / Fold change /veh GAP43 (11754022_s_at) / RFU A4GNT (11735810_at) / Fold change /veh A4GNT (11735810_at) / RFU PRB3 (11715151_x_at) / Fold change /veh PRB3 (11715151_x_at) / RFU TUBB4B (11761932_at) / Fold change /veh TUBB4B (11761932_at) / RFU CAPN14 (11732068_a_at) / Fold change /veh CAPN14 (11732068_a_at) / RFU TMCC2 (11721928_a_at) / Fold change /veh TMCC2 (11721928_a_at) / RFU IRGQ (11745062_a_at) / Fold change /veh IRGQ (11745062_a_at) / RFU FAM174B (11720279_a_at) / Fold change /veh FAM174B (11720279_a_at) / RFU TMPRSS4 (11748680_a_at) / Fold change /veh TMPRSS4 (11748680_a_at) / RFU FAM212B (11763350_a_at) / Fold change /veh FAM212B (11763350_a_at) / RFU PLEKHG5 (11743358_a_at) / Fold change /veh PLEKHG5 (11743358_a_at) / RFU ZSCAN30 (11745921_a_at) / Fold change /veh ZSCAN30 (11745921_a_at) / RFU CMKLR1 (11741424_a_at) / Fold change /veh CMKLR1 (11741424_a_at) / RFU LOC101060620 /// MAPK8IP1 (11723275_at) / Fold change /veh LOC101060620 /// MAPK8IP1 (11723275_at) / RFU SPTSSB (11747773_x_at) / Fold change /veh SPTSSB (11747773_x_at) / RFU PRSS12 (11739890_at) / Fold change /veh PRSS12 (11739890_at) / RFU BIN1 (11741810_x_at) / Fold change /veh BIN1 (11741810_x_at) / RFU WNT11 (11732464_a_at) / Fold change /veh WNT11 (11732464_a_at) / RFU C10orf10 (11716521_a_at) / Fold change /veh C10orf10 (11716521_a_at) / RFU C5orf56 (11738089_at) / Fold change /veh C5orf56 (11738089_at) / RFU CYB561 (11721691_x_at) / Fold change /veh CYB561 (11721691_x_at) / RFU ANKRD19P (11752326_a_at) / Fold change /veh ANKRD19P (11752326_a_at) / RFU OR2T12 /// OR2T33 /// OR2T8 (11738714_s_at) / Fold change /veh OR2T12 /// OR2T33 /// OR2T8 (11738714_s_at) / RFU VCAN (11748164_a_at) / Fold change /veh VCAN (11748164_a_at) / RFU JSRP1 (11732532_at) / Fold change /veh JSRP1 (11732532_at) / RFU KRTAP10-11 (11738290_x_at) / Fold change /veh KRTAP10-11 (11738290_x_at) / RFU MYO3A (11730013_a_at) / Fold change /veh MYO3A (11730013_a_at) / RFU EBF3 (11725865_a_at) / Fold change /veh EBF3 (11725865_a_at) / RFU CAMK2N1 (11719241_x_at) / Fold change /veh CAMK2N1 (11719241_x_at) / RFU C5orf56 (11738088_a_at) / Fold change /veh C5orf56 (11738088_a_at) / RFU OLFML3 (11715873_a_at) / Fold change /veh OLFML3 (11715873_a_at) / RFU LOC100653217 /// NTM (11731650_a_at) / Fold change /veh LOC100653217 /// NTM (11731650_a_at) / RFU MAPK11 (11762145_a_at) / Fold change /veh MAPK11 (11762145_a_at) / RFU FIZ1 (11724087_x_at) / Fold change /veh FIZ1 (11724087_x_at) / RFU OASL (11726364_x_at) / Fold change /veh OASL (11726364_x_at) / RFU SOX15 (11748057_x_at) / Fold change /veh SOX15 (11748057_x_at) / RFU CD79A (11719716_a_at) / Fold change /veh CD79A (11719716_a_at) / RFU HIST1H1D (11736915_at) / Fold change /veh HIST1H1D (11736915_at) / RFU CASKIN2 (11723855_a_at) / Fold change /veh CASKIN2 (11723855_a_at) / RFU LOC730098 (11760151_x_at) / Fold change /veh LOC730098 (11760151_x_at) / RFU OR4N2 (11742367_at) / Fold change /veh OR4N2 (11742367_at) / RFU PRRT2 (11749266_a_at) / Fold change /veh PRRT2 (11749266_a_at) / RFU SNX32 (11753110_a_at) / Fold change /veh SNX32 (11753110_a_at) / RFU CDHR5 (11726645_a_at) / Fold change /veh CDHR5 (11726645_a_at) / RFU RCAN1 (11760418_a_at) / Fold change /veh RCAN1 (11760418_a_at) / RFU FAM167A (11723789_a_at) / Fold change /veh FAM167A (11723789_a_at) / RFU FAM26E (11764081_at) / Fold change /veh FAM26E (11764081_at) / RFU ISYNA1 (11749810_s_at) / Fold change /veh ISYNA1 (11749810_s_at) / RFU ACY1 (11761880_at) / Fold change /veh ACY1 (11761880_at) / RFU 11764098_at / Fold change /veh 11764098_at / RFU SAMD14 (11745864_x_at) / Fold change /veh SAMD14 (11745864_x_at) / RFU NPB (11741838_a_at) / Fold change /veh NPB (11741838_a_at) / RFU TMPRSS6 (11731388_a_at) / Fold change /veh TMPRSS6 (11731388_a_at) / RFU KRTAP10-2 (11738614_at) / Fold change /veh KRTAP10-2 (11738614_at) / RFU ARHGAP8 /// PRR5-ARHGAP8 (11727945_x_at) / Fold change /veh ARHGAP8 /// PRR5-ARHGAP8 (11727945_x_at) / RFU KRTAP5-7 /// NADSYN1 (11734609_at) / Fold change /veh KRTAP5-7 /// NADSYN1 (11734609_at) / RFU RASL12 (11751679_a_at) / Fold change /veh RASL12 (11751679_a_at) / RFU CDKN2B (11736163_a_at) / Fold change /veh CDKN2B (11736163_a_at) / RFU PRF1 (11729649_at) / Fold change /veh PRF1 (11729649_at) / RFU, ZNF638 /// ZNF638-IT1 / Fold change vs veh, ZNF638 /// ZNF638-IT1 / RFU, PANK3 / Fold change vs veh, PANK3 / RFU, SH3YL1 / Fold change vs veh, SH3YL1 / RFU, ZEB2 / Fold change vs veh, ZEB2 / RFU, NRIP1 / Fold change vs veh, NRIP1 / RFU, PTTG1IP / Fold change vs veh, PTTG1IP / RFU, CAPN2 / Fold change vs veh, CAPN2 / RFU, MED14 / Fold change vs veh, MED14 / RFU, SNORA58 / Fold change vs veh, SNORA58 / RFU, C1orf63 / Fold change vs veh, C1orf63 / RFU, LRRFIP1 / Fold change vs veh, LRRFIP1 / RFU, NDUFAF7 / Fold change vs veh, NDUFAF7 / RFU, SLC12A2 / Fold change vs veh, SLC12A2 / RFU, IBTK / Fold change vs veh, IBTK / RFU, ESF1 / Fold change vs veh, ESF1 / Fold change vs veh, TMEM50B / RFU, TAOK1 / Fold change vs veh, TAOK1 / RFU, ACBD3 / Fold change vs veh, ACBD3 / RFU, TMA16 / Fold change vs veh, TMA16 / RFU, RWDD3 / Fold change vs veh, RWDD3 / RFU, BCAT1 / Fold change vs veh, BCAT1 / RFU, EDEM3 / Fold change vs veh, EDEM3 / RFU, TMEM33 / Fold change vs veh, TMEM33 / RFU, WDR75 / Fold change vs veh, WDR75 / RFU, AHCTF1 / Fold change vs veh, AHCTF1 / RFU, TFRC / Fold change vs veh, TFRC / RFU, ZDHHC17 / Fold change vs veh, ZDHHC17 / RFU, NOM1 / Fold change vs veh, NOM1 / RFU, ARL8B / Fold change vs veh, ARL8B / RFU, ZBTB11 / Fold change vs veh, ZBTB11 / RFU, TAMM41 / Fold change vs veh, TAMM41 / RFU, KIAA1704 /// LOC100996395 / Fold change vs veh, KIAA1704 /// LOC100996395 / RFU, ING1 / Fold change vs veh, ING1 / RFU, TRMT61B / Fold change vs veh, TRMT61B / RFU, FUBP3 / Fold change vs veh, FUBP3 / RFU, TP53 / Fold change vs veh, TP53 / RFU, TNKS2 / Fold change vs veh, TNKS2 / RFU, ZFP14 / Fold change vs veh, ZFP14 / RFU, ACTR2 / Fold change vs veh, ACTR2 / RFU, PPP3R1 / Fold change vs veh, PPP3R1 / RFU, PIK3R1 / Fold change vs veh, PIK3R1 / RFU, HNRNPA1 / Fold change vs veh, HNRNPA1 / RFU, RNF170 / Fold change vs veh, RNF170 / RFU, ZNF28 / Fold change vs veh, ZNF28 / RFU, RNGTT / Fold change vs veh, RNGTT / RFU, OGT / Fold change vs veh, OGT / RFU, BRD1 / Fold change vs veh, BRD1 / RFU, MARS / Fold change vs veh, MARS / RFU, ZNF655 / Fold change vs veh, ZNF655 / RFU, FAHD1 / Fold change vs veh, FAHD1 / RFU, BDP1 / Fold change vs veh, BDP1 / RFU, LRRCC1 / Fold change vs veh, LRRCC1 / RFU, ARID1A / Fold change vs veh, ARID1A / RFU, ZNF146 / Fold change vs veh, ZNF146 / RFU, ZNF330 / Fold change vs veh, ZNF330 / RFU, GPN3 / Fold change vs veh, GPN3 / RFU, C9orf123 / Fold change vs veh, C9orf123 / RFU, N4BP2L2 / Fold change vs veh, N4BP2L2 / RFU, ARFIP1 / Fold change vs veh, ARFIP1 / RFU, FAM179B / Fold change vs veh, FAM179B / RFU, BCL10 / Fold change vs veh, BCL10 / RFU, UHRF1BP1L / Fold change vs veh, UHRF1BP1L / RFU, BET1 / Fold change vs veh, BET1 / RFU, CNOT2 / Fold change vs veh, CNOT2 / RFU, ZNF268 / Fold change vs veh, ZNF268 / Fold change vs veh, ZNF507 / RFU, DGCR2 / Fold change vs veh, DGCR2 / RFU, WDSUB1 / Fold change vs veh, WDSUB1 / Fold change vs veh, HSP90B1 /// MIR3652 / RFU, ADSS / Fold change vs veh, ADSS / RFU, GK / Fold change vs veh, GK / RFU, ZNF148 / Fold change vs veh, ZNF148 / RFU, TAF9 / Fold change vs veh, TAF9 / RFU, SLC1A5 / Fold change vs veh, SLC1A5 / RFU, SLMO2 / Fold change vs veh, SLMO2 / RFU, ABCC4 / Fold change vs veh, ABCC4 / RFU, LOC101060439 /// RAP1B / Fold change vs veh, LOC101060439 /// RAP1B / RFU, RFX7 / Fold change vs veh, RFX7 / RFU, GTPBP10 / Fold change vs veh, GTPBP10 / RFU, CNEP1R1 / Fold change vs veh, CNEP1R1 / RFU, BIVM-ERCC5 /// ERCC5 / Fold change vs veh, BIVM-ERCC5 /// ERCC5 / RFU, ILF3 / Fold change vs veh, ILF3 / RFU 11762660_at / Fold change /veh 11762660_at / RFU VCAN (11757783_s_at) / Fold change /veh VCAN (11757783_s_at) / RFU DDX43 (11728927_at) / Fold change /veh DDX43 (11728927_at) / RFU KRT8 (11758188_x_at) / Fold change /veh KRT8 (11758188_x_at) / RFU NKD1 (11759106_at) / Fold change /veh NKD1 (11759106_at) / RFU SRD5A1 (11742802_a_at) / Fold change /veh SRD5A1 (11742802_a_at) / RFU TPSAB1 /// TPSB2 (11721975_s_at) / Fold change /veh TPSAB1 /// TPSB2 (11721975_s_at) / RFU GSTM3 (11746129_a_at) / Fold change /veh GSTM3 (11746129_a_at) / RFU IL23R (11737362_x_at) / Fold change /veh IL23R (11737362_x_at) / RFU TMEM51 (11727254_a_at) / Fold change /veh TMEM51 (11727254_a_at) / RFU PIWIL2 (11732686_x_at) / Fold change /veh PIWIL2 (11732686_x_at) / RFU ORM1 (11744905_x_at) / Fold change /veh ORM1 (11744905_x_at) / RFU CCDC152 (11743942_at) / Fold change /veh CCDC152 (11743942_at) / RFU ECM1 (11717891_a_at) / Fold change /veh ECM1 (11717891_a_at) / RFU IL23R (11748794_a_at) / Fold change /veh IL23R (11748794_a_at) / RFU TNFAIP8L3 (11732012_x_at) / Fold change /veh TNFAIP8L3 (11732012_x_at) / RFU MBOAT4 (11741988_at) / Fold change /veh MBOAT4 (11741988_at) / RFU 11764193_at / Fold change /veh 11764193_at / RFU TMEM53 (11763286_at) / Fold change /veh TMEM53 (11763286_at) / RFU MAGEB2 (11727129_at) / Fold change /veh MAGEB2 (11727129_at) / RFU TMEM200A (11744735_a_at) / Fold change /veh TMEM200A (11744735_a_at) / RFU CCDC152 (11751479_a_at) / Fold change /veh CCDC152 (11751479_a_at) / RFU FAM211A (11726209_a_at) / Fold change /veh FAM211A (11726209_a_at) / RFU RGS16 (11746705_a_at) / Fold change /veh RGS16 (11746705_a_at) / RFU VCAN (11755009_s_at) / Fold change /veh VCAN (11755009_s_at) / RFU RHOB (11743442_s_at) / Fold change /veh RHOB (11743442_s_at) / RFU RGS16 (11720943_a_at) / Fold change /veh RGS16 (11720943_a_at) / RFU RGS16 (11720944_at) / Fold change /veh RGS16 (11720944_at) / RFU, VPS4B / Fold change vs veh, VPS4B / RFU, CREB1 / Fold change vs veh, CREB1 / RFU, DNAJC13 / Fold change vs veh, DNAJC13 / RFU, GNAQ / Fold change vs veh, GNAQ / RFU, CDK5R1 / Fold change vs veh, CDK5R1 / RFU, ZRANB3 / Fold change vs veh, ZRANB3 / RFU, CUL4A / Fold change vs veh, CUL4A / RFU, CCNY / Fold change vs veh, CCNY / RFU, UFL1 / Fold change vs veh, UFL1 / RFU, COG3 / Fold change vs veh, COG3 / RFU, DIAPH2 / Fold change vs veh, DIAPH2 / RFU, SKA2 / Fold change vs veh, SKA2 / RFU, AFF3 / Fold change vs veh, AFF3 / RFU, LMF1 / Fold change vs veh, LMF1 / RFU, IPO11 / Fold change vs veh, IPO11 / RFU, DFFB / Fold change vs veh, DFFB / RFU, FOXP1 / Fold change vs veh, FOXP1 / RFU, CARD8 / Fold change vs veh, CARD8 / RFU, STRN3 / Fold change vs veh, STRN3 / RFU, ADK / Fold change vs veh, ADK / RFU, RASSF2 / Fold change vs veh, RASSF2 / RFU, WIPF1 / Fold change vs veh, WIPF1 / RFU, LARP1B / Fold change vs veh, LARP1B / RFU, RASA1 / Fold change vs veh, RASA1 / RFU, RB1 / Fold change vs veh, RB1 / RFU, PPFIA1 / Fold change vs veh, PPFIA1 / RFU, MAT2A / Fold change vs veh, MAT2A / RFU, CCT5 / Fold change vs veh, CCT5 / RFU, WDR92 / Fold change vs veh, WDR92 / RFU, CUX1 / Fold change vs veh, CUX1 / RFU, TTC7A / Fold change vs veh, TTC7A / RFU, TMEM135 / Fold change vs veh, TMEM135 / RFU, DEPTOR / Fold change vs veh, DEPTOR / RFU, CPM / Fold change vs veh, CPM / RFU, DNAJB6 / Fold change vs veh, DNAJB6 / RFU, CACNA2D3 / Fold change vs veh, CACNA2D3 / RFU, DTX4 / Fold change vs veh, DTX4 / RFU, TFCP2 / Fold change vs veh, TFCP2 / RFU, GMCL1 /// GMCL1P1 / Fold change vs veh, GMCL1 /// GMCL1P1 / RFU, AEBP2 / Fold change vs veh, AEBP2 / RFU, SNHG1 /// SNORD22 /// SNORD25 /// SNORD26 /// SNORD27 /// SNORD28 /// SNORD29 /// SNORD31 / Fold change vs veh, SNHG1 /// SNORD22 /// SNORD25 /// SNORD26 /// SNORD27 /// SNORD28 /// SNORD29 /// SNORD31 / Fold change (Aza/veh), C12orf56 (ProbeSet 11735607_a_at) / Fold change (ACY-1035/veh), C12orf56 (ProbeSet 11735607_a_at) / Fold change (Aza/veh), FGFR1OP (ProbeSet 11751329_s_at) / Fold change (ACY-1035/veh), FGFR1OP (ProbeSet 11751329_s_at) / Fold change (Aza/veh), VPS36 (ProbeSet 11739960_a_at) / Fold change (ACY-1035/veh), VPS36 (ProbeSet 11739960_a_at) / RFU SYPL1 (11715823_x_at) / Fold change /veh SYPL1 (11715823_x_at) / RFU IGFBP7 (11715501_s_at) / Fold change /veh IGFBP7 (11715501_s_at) / RFU REEP3 (11722064_at) / Fold change /veh REEP3 (11722064_at) / RFU IGLL1 (11728026_x_at) / Fold change /veh IGLL1 (11728026_x_at): dose or concentration left out as unconfirmed",
  "settings": "ProbeSet 11732370_a_at; LIST D",
  "data": [
    {"smiles": "Nc1ccc(-c2cccs2)cc1NC(=O)c1ccc2c(c1)cc(C1CC1)n2CCN1CCOCC1", "note": "[ACY-1035]", "values": [
      {"measurement": "RFU, CUX1", "value": 235.11, "unit": "RFU"}
    ]}
  ]
}
